Our source for the EC50 values is patent US9655889B2, “Inhibitors of human immunodeficiency virus replication” (priority 2013, dated 2017).

What is called pEC50 is −log10 of the EC50, conventionally taken in molar units.

pEC50: −log10 of the molar value.

The assay concerns recombinant NL-Rluc virus. Put plainly: Inhibition of HIV replication (NL-RLuc virus luciferase assay in MT-2 cells). It is filed as cell-based. As to conditions: Human immunodeficiency virus 1, MT2, 120 h.
As to `Cc1cc(CNC(=O)c2cn3c(N4CCC(C)(C)CC4)c([C@H](OC(C)(C)C)C(=O)O)c(C)cc3n2)ccc1F` [Example 1, (S)-2-(tert-Butoxy)-2-(5-(4,4-dimethylpiperidin-1-yl)-2-((4-fluoro-3-methylbenzyl)carbamoyl)-7-methylimidazo[1,2-a]pyridin-6-yl)acetic acid], the pEC50 is 8.10.

In the case of `Cc1cc2nc(-c3ncc(Cc4ccc(F)cc4)o3)cn2c(N2CCC(C)(C)CC2)c1[C@H](OC(C)(C)C)C(=O)O` [Example 2, (S)-2-(tert-Butoxy)-2-(5-(4,4-dimethylpiperidin-1-yl)-2-(5-(4-fluorobenzyl)oxazol-2-yl)-7-methylimidazo[1,2-a]pyridin-6-yl)acetic acid], the pEC50 is 8.70.

Regarding `Cc1cc2nc(-c3ncc(Cc4ccc(F)cc4)s3)cn2c(N2CCC(C)(C)CC2)c1[C@H](OC(C)(C)C)C(=O)O` [Example 3, (S)-2-(tert-Butoxy)-2-(5-(4,4-dimethylpiperidin-1-yl)-2-(5-(4-fluorobenzyl)thiazol-2-yl)-7-methylimidazo[1,2-a]pyridin-6-yl)acetic acid], the pEC50 was 7.68.

For `Cc1cc2nc(-c3nc(Cc4ccccc4)no3)cn2c(N2CCC(C)(C)CC2)c1[C@H](OC(C)(C)C)C(=O)O` [Example 4, (S)-2-(2-(3-Benzyl-1,2,4-oxadiazol-5-yl)-5-(4,4-dimethylpiperidin-1yl)-7-methylimidazo[1,2-a]pyridin-6-yl)-2-(tert-butoxy)acetic acid], the negative logarithm of the EC50 (pEC50) is 8.52.

Take `Cc1cc2nc(-c3nnc(Cc4ccccc4)o3)cn2c(N2CCC(C)(C)CC2)c1[C@H](OC(C)(C)C)C(=O)O` [Example 5, (S)-2-(2-(5-Benzyl-1,3,4-oxadiazol-2-yl)-5-(4,4-dimethylpiperidin-1-yl)-7-methylimidazo[1,2-a]pyridin-6-yl)-2-(tert-butoxy)acetic acid]: the pEC50 was 8.10.

`Cc1cc2nc(-c3nc(Cl)c(Cc4ccc(F)cc4)[nH]3)cn2c(N2CCC(C)(C)CC2)c1[C@H](OC(C)(C)C)C(=O)O` [Example 6, (S)-2-(tert-Butoxy)-2-(2-(4-chloro-5-(4-fluorobenzyl)-1H-imidazol-2-yl)-5-(4,4-dimethylpiperidin-1-yl)-7-methylimidazo[1,2-a]pyridin-6)acetic acid]: the pEC50 was 7.89.

With `Cc1cc2nc(-c3ncc(Cc4ccc(F)cc4)[nH]3)cn2c(N2CCC(C)(C)CC2)c1[C@H](OC(C)(C)C)C(=O)O` [Example 7, (S)-2-(tert-Butoxy)-2-(5-(4,4-dimethylpiperidin-1-yl)-2-(5-(4-fluorobenzyl)-1H-imidazol-2-yl)-7-methylimidazo[1,2-a]pyridin-6-yl)acetic acid], the pEC50 is 7.47.

On to `C=CCOC1(C)CCN(c2c([C@H](OC(C)(C)C)C(=O)O)c(C)cc3nc(NS(=O)(=O)Cc4ccc(F)cc4)cn23)CC1` [Example 8, (S)-2-(5-(4-(Allyloxy)-4-methylpiperidin-1-yl)-2((4-fluorophenyl)methylsulfonamido)-7-methylimidazo[1,2-a]pyridin-6-yl)-2-(tert-butoxy)acetic acid], for which the pEC50 is 5.48.

For `C=CCOC1(C)CCN(c2c([C@H](OC(C)(C)C)C(=O)O)c(C)cc3nc(NS(=O)(=O)c4ccc(F)cc4)cn23)CC1` [Example 9, (S)-2-(5-(4-(Allyloxy)-4-methylpiperidin-1-yl)-2-(4-fluorophenylsulfonamido)-7-methylimidazo[1,2-a]pyridin-6-yl)-2-(tert-butoxy)acetic acid], the pEC50 was 5.22.
